Measured values: PMC9743090, “Induction of Ferroptosis in Glioblastoma and Ovarian Cancers by a New Pyrrole Tubulin Assembly Inhibitor” (Journal of Medicinal Chemistry, 2022)
Several values for one entry are separate records, joined by “and”; a condition that tells them apart may be missing. Equal values may be shown once.

Legend:
U-87 MG = experiment: In vivo U-87 MG xenograft, tumor size and tumor tissue analysis; set-up: species or system BALB/C^nu/nu mice
Method: Briefly, all 10 week-old female BALB/C^nu/nu mice (24 mice) were purchased from the Shanghai University of Traditional Chinese Medicine with Institutional Animal Care and Use Committee approval in accordance with institutional guidelines. All mice were randomly divided into four groups. In #1 group (4 mice), 1 × 10^8 cells/mL from U-87 MG at the logarithmic growth phase were harvested and inoculated subcutaneously, followed by intraperitoneal injection of 100 μL of 15 (25 mg/kg) every 2 days. In #2 group (4 mice), 1 × 10^8 cells/mL from U-87 MG at the logarithmic growth phase were harvested and inoculated subcutaneously, followed by intraperitoneal injection of 100 μL of saline every 2 days. In #3 group (4 mice), 1 × 10^8 cells/mL from SKOV-3 at the logarithmic growth phase were harvested and inoculated subcutaneously, followed by intraperitoneal injection of 100 μL 15 (25 mg/kg) every 2 days. In #4 group (4 mice), 1 × 10^8 cells/mL from SKOV-3 at the logarithmic growth phase were harvested and inoculated subcutaneously, followed by intraperitoneal injection of 100 μL of saline every 2 days. After continuous feeding for 40 days, the mice were sacrificed, and the tumors were removed. The tumors were weighed, and the volumes were calculated using the following formula: Tumor volume (cm^3) = (ab^2)/2 (a: the longest axis (cm), b: the shortest axis (cm)).
Briefly, fresh tissues were immersed in 4% paraformaldehyde (Sigma-Aldrich) for fixation at room temperature for 30 min. The tissues were then dehydrated in an ethanol gradient, embedded in paraffin, sectioned (thickness: 6 μm), and immersed in xylene for dewaxing. Tissue sections were blocked with immunohistochemical blocking solution (Beyotime Biotechnology Co., Ltd., Zhejiang, China) at 37 °C for 30 min. The blocking solution was then discarded, and the sections were washed three times at room temperature for 5 min, each with immunohistochemical washing solution (Beyotime Biotechnology). Then, primary antibodies (rabbit anti-GPX4 antibody [EPNCIR144] (ab125066), rabbit anti-ferritin heavy chain antibody [EPR18878] (ab183781), and rabbit anti-Ki67 antibody (ab15580), Abcam, MA, USA) were added and incubated at 37 °C for 45 min. After incubation, the antibody solution was discarded, and the sections were washed three times at room temperature for 5 min each with immunohistochemical washing solution (Beyotime Biotechnology). Then, the secondary antibody (goat anti-rabbit IgG H&L (Alexa Fluor 488), Abcam, MA, USA) was added, and the tissues were incubated at 37 °C for 45 min. After incubation, the antibody solution was discarded, and the sections were washed three times at room temperature for 5 min, each with immunohistochemical washing solution (Beyotime Biotechnology). Finally, immunofluorescence blocking solution (Sigma-Aldrich) was added, and the sections were mounted.
According to the instructions of the RNAprep pure Tissue Kit (TIANGEN Biotech (Beijing) China) Co., Ltd., Beijing, China), to about 20 mg of […] tissue specimen was added 800 μL of lysis solution, and the mixture was ground, homogenized, and centrifuged. To the supernatant, 200 μL of chloroform was added, and the mixture was mixed by inverting and centrifuged at 4 °C at 13,400 × g for 15 min. To the supernatant, two volumes of absolute ethanol were added, mixed by inversion, and centrifuged at 4 °C at 13,400 × g for 30 min. Ethanol precipitation and centrifugation of the supernatant were repeated. The RNA pellet was suspended with 500 μL of 75% ethanol and centrifuged at 13,400 × g at 4 °C for 5 min. The supernatant was discarded, the excess liquid was removed, and the pellet was dissolved in 300 μL of DECP water. One microliter of the RNA solution was used to measure the ratio of A260–A280 (generally 1.8–2.0) to determine the purity and approximate concentration of the RNA. […]

[1] = Metabolic stability in mouse liver microsomes; format: in vitro ADME
Method: Mouse (Sigma Aldrich, CD-1 male, pooled) and human microsomes (Sigma Aldrich, human, pooled) at 0.5 mg/mL were preincubated with the test compound 15 dissolved in DMSO at 1 μM in phosphate buffer 50 mM, pH 7.4, and 3 mM MgCl2 for 10 min at 37 °C. The reaction was then started by adding the cofactor mixture solution (NADP, glucose-6-phosphate, glucose-6-phosphate dehydrogenase in 2% NaHCO3). Samples were taken at 0, 10, 30, 45, and 60 min and added to acetonitrile to stop the reaction. Samples were then centrifuged, and the supernatant was analyzed by LC–MS/MS to quantify the amount of the compound. A control sample without the cofactor was always added to check the chemical stability of the test compound. […] A fixed concentration of verapamil was added in every sample as an internal standard for LC–MS/MS analyses. The percentage of the area of the test compound remaining at the various incubation times was calculated with respect to the area of the compound at time 0 min.
The rate constant, k (min^–1), derived for the exponential decay equation (peak area/IS vs time), was used to calculate the rate of Cli.
Samples were analyzed under the following conditions: UPLC Waters coupled with an API 3200 triple-quadrupole (ABSciex); eluents, (phase A) 95% water, 5% acetonitrile + 0.1% HCOOH, (phase B) 5% water, 95% acetonitrile + 0.1% HCOOH; flow rate, 0.3 mL/min; column, Gemini-Nx 5 μm C18 110A (50 × 2.00 mm) at 35 °C; injection volume, 10 μL. Source conditions ESI positive: T 400 °C, Gas 1 30, Gas 2 35, CUR 30, IS 5500, CAD 5.

[2] = test system: PARP cleavage in U-87 MG cells; experiment: PARP cleavage by western blot in U-87 MG cells; format: cell-based, human; settings: immunoblotting
Method: (§1) Western blotting was performed as previously described[68] by lysing cells in denaturing buffer sodium dodecyl sulfate (SDS)–urea. Extracts were sonicated, their protein quantified, and aliquots were loaded into an SDS–polyacrylamide gel. After electrophoresis, the proteins in the gel were transferred onto a nitrocellulose membrane (cat. no. NBA085C001EA, PerkinElmer), which then was blocked with 5% milk in TBS-T (Tris HCl with 0.1% Tween 20) and incubated with primary antibodies overnight: PARP antibody diluted 1:1000 (cat. no. 9542S CST) and actin antibody diluted 1:10,000 (cat. no. A5441, Sigma Aldrich). The next day, the membrane was extensively washed with TBS-T and incubated with horse radish peroxidase (HRP)-conjugated secondary antibodies diluted in the 5% milk solution. Detection of the HRP signal was performed using ECL (cat. no. K-12045-D50, Advansta).

[3] = test system: PARP cleavage in OVCAR-3 cells; experiment: PARP cleavage by western blot in OVCAR-3 cells; format: cell-based, human; settings: immunoblotting
Method: as §1

COc1cc(C(=O)c2cn(-c3ncccn3)cc2-c2ccco2)cc(OC)c1OC [Compound 15, (4-(Furan-2-yl)-1-(pyrimidyl-2-yl)-1H-pyrrol-3-yl)(3,4,5-trimethoxyphenyl)methanone]
ATP level in tumor tissue vs control (U-87 MG; 25 mg/kg i.p. every 2 days): significantly lower
Fe2+ concentration in tumor tissue vs control (U-87 MG; 25 mg/kg i.p. every 2 days): significantly higher
LPO level in tumor tissue vs control (U-87 MG; 25 mg/kg i.p. every 2 days): appreciably higher
MDA level in tumor tissue vs control (U-87 MG; 25 mg/kg i.p. every 2 days): appreciably higher
T-GSH level in tumor tissue vs control (U-87 MG; 25 mg/kg i.p. every 2 days): significantly lower
lactic acid level in tumor tissue vs control (U-87 MG; 25 mg/kg i.p. every 2 days): appreciably higher
tumor size (volume and weight) vs saline control (U-87 MG; 25 mg/kg i.p. every 2 days, day 40): significantly smaller
CD31 expression in tumor tissue vs control (U-87 MG; immunofluorescence staining): significantly lower expression
FTH1 expression in tumor tissue vs control (U-87 MG; immunofluorescence staining): significantly lower expression
GPX4 expression in tumor tissue vs control (U-87 MG; immunofluorescence staining): significantly lower expression
Ki67 expression in tumor tissue vs control (U-87 MG; immunofluorescence staining): significantly lower expression
Cli ± SD ([1]; MLM 0.5 mg/mL, 1 μM, n = 2): 461 μL/min/mg protein and 461.1 ± 45.5 μL/min/mg protein
half-life at 1 h, 1 µM ([1]; male, CD-1, mouse, liver microsomes, pH 7.4, MLM 0.5 mg/mL, 1 μM, n = 2, read-out: t1/2 ± SD): 3 ± 0.3 min
microsomal CLint at 1 μM ([1]; male, CD-1, pH 7.4, mouse liver microsomes, read-out: intrinsic clearance classification): > 66 µL/min/mg
concentration from which PARP cleavage occurs [2]: ≥ 20 nM
concentration from which cleaved PARP increases [3]: ≥ 5 nM
